The values that follow come from patent publication US20140141456A1, “PAPP-A2 AS A MARKER FOR MONITORING, PREDICTING AND DIAGNOSING PREECLAMPSIA” (Ansh Labs, LLC, priority 2012, published 2014).

Data set [1] has as its target PAPP-A2 (Homo sapiens, UniProt Q9BXP8).
Experimental: Medium from 293T cells transfected with empty vector (lane 1), cDNA encoding PAPP-A2 with an inactivating E734Q mutation (pPA2-KO) (lane 2), or cDNA encoding wild-type PAPP-A2 (pPA2) (lanes 3-6) was incubated with C-terminally c-myc tagged rIGFBP-5. Proteolytic activity was assessed by Western blotting using anti-c-myc. ‘i’ denotes intact rIGFBP-5; ‘c’ denotes the detectable C-terminal c-myc tagged cleavage product.
Briefly, recombinant IGFBP-5 as contained in 5 microL cell culture medium was incubated with culture supernatants (10 microL) from cells transfected with pPA2, pPA2-KO, or empty expression vectors (see U.S. Pat. No. 7,083,940). Phosphate buffered saline was added to a final volume of 50 microL. After incubation at 37 degrees Celsius for 12 hours, 15 microL of the reaction mixture was separated by reducing 16% SDS-PAGE, blotted onto a PVDF membrane, and the C-terminal cleavage product was detected with monoclonal anti-c-myc (clone 9E19, ATTC) using peroxidase-conjugated secondary antibodies (P260, DAKO), and enhanced chemiluminescence (ECL, Amersham).
Data set [2] has as its system rIGFBP-5. The experiment in a line: Proteolytic activity of PAPP-A2 against IGFBP-5, Western blotting using anti-c-myc. Conditions: absence of inhibitors; medium from 293T cells transfected with pPA2. The format is biochemical, human. In general terms: A western blot detects proteins with antibodies after separation by electrophoresis.
In data set [3] the test system is IGFBP-3. In words: Activity of PAPP-A2 against IGFBPs, ligand blotting using radiolabeled IGF-II. The format is biochemical. The note with it: medium from 293T cells transfected with pPA2. How it is done:
(§1) Ligand blotting (Conover et al., 1993, J Clin Invest 91, 1129-37) with radiolabeled IGF-II (Bachem) was used to assay for activity against IGFBP-1 (from HepG2 conditioned medium), rIGFBP-2 (GroPep), rIGFBP-3 (gift of D. Powell), rIGFBP-4 (Austral), rIGFBP-5 (gift of D. Andress), and rIGFBP-6 (Austral). […] IGFBP-3 was partially degraded (FIG. 10). This cleavage was independent of the presence of IGF. Experiments were carried out with media from cells transfected with pPA2 or empty vector.
(§2) Medium from 293T cells transfected with empty vector (−), or cDNA encoding PAPP-A2 (pPA2) (+) was incubated with each of the six IGFBPs (BP1-BP6), and the activity was assessed by ligand blotting using radiolabeled IGF-II.

For data set [4], the system named is IGFBP-5. The description is as above. The format is biochemical. Conditions: medium from 293T cells transfected with pPA2. How it is done: as §1, §2

Sequence of PAPP-A2 (Q9BXP8 234-1791 limits assumed): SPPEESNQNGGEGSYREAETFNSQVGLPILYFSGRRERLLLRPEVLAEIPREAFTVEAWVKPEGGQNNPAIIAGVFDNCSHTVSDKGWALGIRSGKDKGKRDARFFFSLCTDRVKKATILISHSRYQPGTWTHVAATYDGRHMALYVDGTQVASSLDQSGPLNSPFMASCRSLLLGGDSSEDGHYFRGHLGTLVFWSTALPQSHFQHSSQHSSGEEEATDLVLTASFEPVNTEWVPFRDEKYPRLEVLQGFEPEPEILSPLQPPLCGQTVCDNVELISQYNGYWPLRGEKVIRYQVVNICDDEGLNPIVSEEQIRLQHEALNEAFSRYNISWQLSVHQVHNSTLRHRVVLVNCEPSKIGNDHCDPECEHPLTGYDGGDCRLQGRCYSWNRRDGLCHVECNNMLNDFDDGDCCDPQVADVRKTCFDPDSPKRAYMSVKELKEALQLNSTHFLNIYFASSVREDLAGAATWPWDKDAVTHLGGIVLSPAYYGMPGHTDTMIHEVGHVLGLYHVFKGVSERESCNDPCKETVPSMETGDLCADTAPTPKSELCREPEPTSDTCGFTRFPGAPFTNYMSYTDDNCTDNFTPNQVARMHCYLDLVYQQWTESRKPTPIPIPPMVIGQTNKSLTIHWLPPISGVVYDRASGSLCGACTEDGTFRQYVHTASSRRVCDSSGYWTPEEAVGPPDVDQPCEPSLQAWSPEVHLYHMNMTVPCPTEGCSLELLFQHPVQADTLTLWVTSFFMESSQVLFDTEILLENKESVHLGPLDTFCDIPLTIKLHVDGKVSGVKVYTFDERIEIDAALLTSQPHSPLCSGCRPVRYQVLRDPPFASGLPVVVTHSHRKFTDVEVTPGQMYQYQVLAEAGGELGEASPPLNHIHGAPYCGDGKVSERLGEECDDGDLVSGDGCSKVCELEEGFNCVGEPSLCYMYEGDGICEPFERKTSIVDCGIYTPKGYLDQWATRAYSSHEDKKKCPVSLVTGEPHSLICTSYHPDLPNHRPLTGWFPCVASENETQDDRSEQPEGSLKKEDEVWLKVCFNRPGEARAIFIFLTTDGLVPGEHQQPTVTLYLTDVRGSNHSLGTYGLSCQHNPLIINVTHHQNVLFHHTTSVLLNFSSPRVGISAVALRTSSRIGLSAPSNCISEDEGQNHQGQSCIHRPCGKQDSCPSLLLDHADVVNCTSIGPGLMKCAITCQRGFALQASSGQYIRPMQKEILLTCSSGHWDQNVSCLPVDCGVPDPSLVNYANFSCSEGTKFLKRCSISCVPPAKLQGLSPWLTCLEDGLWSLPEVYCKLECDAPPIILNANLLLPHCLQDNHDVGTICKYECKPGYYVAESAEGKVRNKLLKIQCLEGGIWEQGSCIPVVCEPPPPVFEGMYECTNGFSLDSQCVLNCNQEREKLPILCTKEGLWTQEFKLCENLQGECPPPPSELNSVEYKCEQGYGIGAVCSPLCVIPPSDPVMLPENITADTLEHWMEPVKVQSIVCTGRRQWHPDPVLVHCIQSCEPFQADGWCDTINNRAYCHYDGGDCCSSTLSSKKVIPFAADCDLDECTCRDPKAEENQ

In the case of `O=c1oc(Cl)c(Cl)c2ccccc12` [3,4-DCI], the “PAPP-A2 activity (degradation of rIGFBP-5)” value in data set [1] is listed as “not affected”.
In the case of `c1cnc2c(c1)ccc1cccnc12` [phenanthroline], the “PAPP-A2 activity (degradation of rIGFBP-5)” value in data set [1] is “abolished”.
Consider “PAPP-A2: recombinant wild-type PAPP-A2 metalloproteinase in medium from 293T cells transfected with cDNA (pPA2)”, for which the “Degradation of rIGFBP-5” value in data set [2] is listed as “degraded all rIGFBP-5”. Moreover, the “Degradation of IGFBP-3” value in data set [3] is “Partial degradation”. Further, in data set [4], the “Cleavage of IGFBP-5” value is “Complete cleavage”.
